In PMC8909834, “An Orally Bioavailable and Highly Efficacious Inhibitor of CDK9/FLT3 for the Treatment of Acute Myeloid Leukemia” (Cancers, 2022):

Key:
Assay in all cases: Kinase Hotspot radiolabel assay
Format in all cases: biochemical
Conditions in all cases: read-out: % Residual Activity
ABL1 = target: T1, ABL1 (Homo sapiens, UniProt P00519)
T1 construct: purchased Reaction Biology Corporation (Kinase HotSpot)
Summary of the method: (§1)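 1 µM cpd; 369-kinase radiolabel Hotspot panel; Ki run for hits >90% inhibition.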

Aurora C = target: T2, Aurora C (Homo sapiens, UniProt Q9UQB9)
T2 construct: purchased Reaction Biology Corporation (Kinase HotSpot)
Summary of the method: as §1

BLK = target: T3, BLK (Homo sapiens, UniProt P51451)
T3 construct: purchased Reaction Biology Corporation (Kinase HotSpot)
Summary of the method: as §1

CAMK1d = target: T4, CAMK1d (Homo sapiens, UniProt Q8IU85)
T4 construct: purchased Reaction Biology Corporation (Kinase HotSpot)
Summary of the method: as §1

CAMK1g = target: T5, CAMK1g (Homo sapiens, UniProt Q96NX5)
T5 construct: purchased Reaction Biology Corporation (Kinase HotSpot)
Summary of the method: as §1

CAMK2g = target: T6, CAMK2g (Homo sapiens, UniProt Q13555)
T6 construct: purchased Reaction Biology Corporation (Kinase HotSpot)
Summary of the method: as §1

CDK17/cyclin Y (PCTK2) = target: T7, CDK17/cyclin Y (PCTK2) (Homo sapiens, UniProt Q00537)
T7 construct: purchased Reaction Biology Corporation (Kinase HotSpot)
Summary of the method: as §1

CDK18/cyclin Y (PCTK3) = target: T8, CDK18/cyclin Y (PCTK3) (Homo sapiens, UniProt Q07002)
T8 construct: purchased Reaction Biology Corporation (Kinase HotSpot)
Summary of the method: as §1

CDK19/cyclin C = target: T9, CDK19/cyclin C (Homo sapiens, UniProt Q9BWU1)
T9 construct: purchased Reaction Biology Corporation (Kinase HotSpot)
Summary of the method: as §1

CDK2/cyclin O = target: T10, CDK2/cyclin O (Homo sapiens, UniProt P24941)
T10 construct: purchased Reaction Biology Corporation (Kinase HotSpot)
Summary of the method: as §1

CDK9/cyclin T1 = target: T11, CDK9/cyclin T1 (Homo sapiens, UniProt P50750)
T11 construct: purchased Reaction Biology Corporation (Kinase HotSpot)
Summary of the method: as §1

CK1a1 = target: T12, CK1a1 (Homo sapiens, UniProt P48729)
T12 construct: purchased Reaction Biology Corporation (Kinase HotSpot)
Summary of the method: as §1

CK1d = target: T13, CK1d (Homo sapiens, UniProt P48730)
T13 construct: purchased Reaction Biology Corporation (Kinase HotSpot)
Summary of the method: as §1

DCAMKL2 = target: T14, DCAMKL2 (Homo sapiens, UniProt Q8N568)
T14 construct: purchased Reaction Biology Corporation (Kinase HotSpot)
Summary of the method: as §1

DDR2 = target: T15, DDR2 (Homo sapiens, UniProt Q16832)
T15 construct: purchased Reaction Biology Corporation (Kinase HotSpot)
Summary of the method: as §1

EPHB1 = target: T16, EPHB1 (Homo sapiens, UniProt P54762)
T16 construct: purchased Reaction Biology Corporation (Kinase HotSpot)
Summary of the method: as §1

HIPK2 = target: T17, HIPK2 (Homo sapiens, UniProt Q9H2X6)
T17 construct: purchased Reaction Biology Corporation (Kinase HotSpot)
Summary of the method: as §1

KHS/MAP4K5 = target: T18, KHS/MAP4K5 (Homo sapiens, UniProt Q9Y4K4)
T18 construct: purchased Reaction Biology Corporation (Kinase HotSpot)
Summary of the method: as §1

MAPKAPK5/PRAK = target: T19, MAPKAPK5/PRAK (Homo sapiens, UniProt Q8IW41)
T19 construct: purchased Reaction Biology Corporation (Kinase HotSpot)
Summary of the method: as §1

PAK1 = target: T20, PAK1 (Homo sapiens, UniProt Q13153)
T20 construct: purchased Reaction Biology Corporation (Kinase HotSpot)
Summary of the method: as §1

PAK5 = target: T21, PAK5 (Homo sapiens, UniProt Q9P286)
T21 construct: purchased Reaction Biology Corporation (Kinase HotSpot)
Summary of the method: as §1

PHKg1 = target: T22, PHKg1 (Homo sapiens, UniProt Q16816)
T22 construct: purchased Reaction Biology Corporation (Kinase HotSpot)
Summary of the method: as §1

PKA = target: T23, PKA (Homo sapiens, UniProt P17612)
T23 construct: purchased Reaction Biology Corporation (Kinase HotSpot)
Summary of the method: as §1

PKCnu/PRKD3 = target: T24, PKCnu/PRKD3 (Homo sapiens, UniProt O94806)
T24 construct: purchased Reaction Biology Corporation (Kinase HotSpot)
Summary of the method: as §1

SNARK/NUAK2 = target: T25, SNARK/NUAK2 (Homo sapiens, UniProt Q9H093)
T25 construct: purchased Reaction Biology Corporation (Kinase HotSpot)
Summary of the method: as §1

SRMS = target: T26, SRMS (Homo sapiens, UniProt Q9H3Y6)
T26 construct: purchased Reaction Biology Corporation (Kinase HotSpot)
Summary of the method: as §1

STK38/NDR1 = target: T27, STK38/NDR1 (Homo sapiens, UniProt Q15208)
T27 construct: purchased Reaction Biology Corporation (Kinase HotSpot)
Summary of the method: as §1

SYK = target: T28, SYK (Homo sapiens, UniProt P43405)
T28 construct: purchased Reaction Biology Corporation (Kinase HotSpot)
Summary of the method: as §1

TESK1 = target: T29, TESK1 (Homo sapiens, UniProt Q15569)
T29 construct: purchased Reaction Biology Corporation (Kinase HotSpot)
Summary of the method: as §1

ULK2 = target: T30, ULK2 (Homo sapiens, UniProt Q8IYT8)
T30 construct: purchased Reaction Biology Corporation (Kinase HotSpot)
Summary of the method: as §1

T6 sequence (Q13555 whole entry): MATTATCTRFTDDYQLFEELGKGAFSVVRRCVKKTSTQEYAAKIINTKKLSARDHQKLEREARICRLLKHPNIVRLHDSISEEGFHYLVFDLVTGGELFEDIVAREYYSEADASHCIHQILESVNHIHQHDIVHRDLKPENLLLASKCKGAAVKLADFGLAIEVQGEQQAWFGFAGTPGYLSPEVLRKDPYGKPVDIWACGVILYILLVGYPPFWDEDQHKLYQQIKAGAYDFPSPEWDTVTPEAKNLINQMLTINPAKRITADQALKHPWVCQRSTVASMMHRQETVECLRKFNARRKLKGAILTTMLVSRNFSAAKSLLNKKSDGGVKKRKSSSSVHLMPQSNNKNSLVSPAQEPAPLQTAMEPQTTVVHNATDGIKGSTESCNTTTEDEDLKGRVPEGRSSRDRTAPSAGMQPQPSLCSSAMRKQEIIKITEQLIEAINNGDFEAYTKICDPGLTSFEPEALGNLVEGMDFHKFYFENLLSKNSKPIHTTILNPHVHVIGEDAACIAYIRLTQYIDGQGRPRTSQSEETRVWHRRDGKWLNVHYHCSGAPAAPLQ
T25 sequence (Q9H093 whole entry): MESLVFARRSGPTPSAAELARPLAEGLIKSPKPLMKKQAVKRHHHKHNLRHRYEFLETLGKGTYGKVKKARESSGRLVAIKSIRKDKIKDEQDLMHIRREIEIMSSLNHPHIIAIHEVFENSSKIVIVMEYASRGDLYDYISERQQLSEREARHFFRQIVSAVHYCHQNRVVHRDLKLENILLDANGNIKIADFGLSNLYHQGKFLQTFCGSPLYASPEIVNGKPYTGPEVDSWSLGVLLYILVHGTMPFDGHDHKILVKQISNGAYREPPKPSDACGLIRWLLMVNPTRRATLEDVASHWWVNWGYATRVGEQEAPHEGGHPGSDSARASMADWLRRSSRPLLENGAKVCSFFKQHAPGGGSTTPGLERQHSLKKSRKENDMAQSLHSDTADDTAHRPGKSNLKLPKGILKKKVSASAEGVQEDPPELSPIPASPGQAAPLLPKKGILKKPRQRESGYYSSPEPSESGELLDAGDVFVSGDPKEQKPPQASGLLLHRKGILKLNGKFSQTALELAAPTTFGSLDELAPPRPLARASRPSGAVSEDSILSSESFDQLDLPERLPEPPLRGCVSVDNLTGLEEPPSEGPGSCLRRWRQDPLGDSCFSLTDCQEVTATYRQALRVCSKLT
T11 sequence (P50750 whole entry): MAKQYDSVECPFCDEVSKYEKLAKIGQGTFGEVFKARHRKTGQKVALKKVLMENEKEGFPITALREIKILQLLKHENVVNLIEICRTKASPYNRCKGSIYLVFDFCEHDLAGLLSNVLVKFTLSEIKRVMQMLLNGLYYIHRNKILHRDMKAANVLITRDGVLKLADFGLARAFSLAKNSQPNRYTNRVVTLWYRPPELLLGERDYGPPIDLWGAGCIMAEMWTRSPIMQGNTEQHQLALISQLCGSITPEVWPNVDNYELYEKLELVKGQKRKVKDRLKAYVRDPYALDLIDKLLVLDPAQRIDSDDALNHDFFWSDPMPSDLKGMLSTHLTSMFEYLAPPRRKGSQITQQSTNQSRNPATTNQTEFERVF
T11 sequence (O60563 whole entry partner): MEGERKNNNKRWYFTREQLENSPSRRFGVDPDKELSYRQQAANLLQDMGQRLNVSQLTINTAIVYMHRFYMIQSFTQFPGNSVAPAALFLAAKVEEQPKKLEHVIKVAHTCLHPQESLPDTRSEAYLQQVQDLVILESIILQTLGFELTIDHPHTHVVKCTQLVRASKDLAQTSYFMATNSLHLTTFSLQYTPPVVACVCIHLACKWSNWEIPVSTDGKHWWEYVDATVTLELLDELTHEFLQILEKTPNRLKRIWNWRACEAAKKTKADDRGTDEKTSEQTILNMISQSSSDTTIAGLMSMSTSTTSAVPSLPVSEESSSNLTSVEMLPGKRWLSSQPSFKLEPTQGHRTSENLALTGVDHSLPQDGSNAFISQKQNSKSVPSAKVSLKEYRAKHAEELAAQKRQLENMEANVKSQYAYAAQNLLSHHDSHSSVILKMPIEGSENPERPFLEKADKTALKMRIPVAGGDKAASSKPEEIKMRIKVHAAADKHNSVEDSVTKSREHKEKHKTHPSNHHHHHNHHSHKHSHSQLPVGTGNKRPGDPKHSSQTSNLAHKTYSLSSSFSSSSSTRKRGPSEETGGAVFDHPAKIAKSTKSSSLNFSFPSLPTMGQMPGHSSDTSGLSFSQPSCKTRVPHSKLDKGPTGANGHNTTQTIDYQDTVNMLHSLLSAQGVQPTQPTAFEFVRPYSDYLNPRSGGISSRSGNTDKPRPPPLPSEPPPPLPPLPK
T30 sequence (Q8IYT8 whole entry): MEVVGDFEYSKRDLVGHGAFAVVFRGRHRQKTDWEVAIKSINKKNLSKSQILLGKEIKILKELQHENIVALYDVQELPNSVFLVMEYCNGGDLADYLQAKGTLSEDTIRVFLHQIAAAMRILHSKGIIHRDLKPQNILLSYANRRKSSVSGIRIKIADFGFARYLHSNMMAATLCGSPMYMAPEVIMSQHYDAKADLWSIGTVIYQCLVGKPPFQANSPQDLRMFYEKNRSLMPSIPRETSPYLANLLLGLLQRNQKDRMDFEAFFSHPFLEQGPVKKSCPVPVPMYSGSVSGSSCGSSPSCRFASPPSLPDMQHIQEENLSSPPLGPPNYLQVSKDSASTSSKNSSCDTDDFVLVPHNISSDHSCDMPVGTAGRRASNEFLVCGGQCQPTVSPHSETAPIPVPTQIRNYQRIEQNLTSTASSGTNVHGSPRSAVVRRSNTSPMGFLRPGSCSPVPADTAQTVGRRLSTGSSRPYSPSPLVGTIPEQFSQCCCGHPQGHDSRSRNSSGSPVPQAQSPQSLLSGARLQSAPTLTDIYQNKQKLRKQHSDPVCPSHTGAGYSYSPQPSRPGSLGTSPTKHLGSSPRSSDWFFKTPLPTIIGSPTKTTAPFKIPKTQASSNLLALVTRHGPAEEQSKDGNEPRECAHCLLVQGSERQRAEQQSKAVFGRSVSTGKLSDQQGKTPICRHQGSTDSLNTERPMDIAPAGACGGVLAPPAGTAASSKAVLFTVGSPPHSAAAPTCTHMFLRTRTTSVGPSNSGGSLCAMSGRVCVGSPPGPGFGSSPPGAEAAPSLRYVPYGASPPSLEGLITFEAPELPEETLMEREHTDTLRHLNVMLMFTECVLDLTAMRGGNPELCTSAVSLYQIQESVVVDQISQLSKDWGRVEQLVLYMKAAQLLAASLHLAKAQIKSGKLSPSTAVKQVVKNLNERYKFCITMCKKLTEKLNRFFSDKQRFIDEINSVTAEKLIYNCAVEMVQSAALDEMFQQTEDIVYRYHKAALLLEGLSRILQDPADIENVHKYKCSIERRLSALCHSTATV
T29 sequence (Q15569 whole entry): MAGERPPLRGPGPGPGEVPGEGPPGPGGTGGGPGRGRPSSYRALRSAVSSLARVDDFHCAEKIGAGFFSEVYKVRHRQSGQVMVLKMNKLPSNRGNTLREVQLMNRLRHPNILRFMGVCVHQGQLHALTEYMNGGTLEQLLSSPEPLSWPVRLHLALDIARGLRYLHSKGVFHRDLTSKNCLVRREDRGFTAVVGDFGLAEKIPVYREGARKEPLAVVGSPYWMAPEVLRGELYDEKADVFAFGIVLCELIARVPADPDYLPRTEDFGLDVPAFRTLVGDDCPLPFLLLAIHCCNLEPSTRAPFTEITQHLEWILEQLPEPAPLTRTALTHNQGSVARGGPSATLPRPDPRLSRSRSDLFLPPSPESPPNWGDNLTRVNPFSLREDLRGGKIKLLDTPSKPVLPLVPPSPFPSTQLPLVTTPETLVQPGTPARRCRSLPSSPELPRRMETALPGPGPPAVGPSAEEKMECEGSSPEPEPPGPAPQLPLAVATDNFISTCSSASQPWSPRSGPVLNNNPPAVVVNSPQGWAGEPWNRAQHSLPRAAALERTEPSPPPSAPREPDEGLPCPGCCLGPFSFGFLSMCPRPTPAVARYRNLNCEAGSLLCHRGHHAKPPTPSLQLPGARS
T2 sequence (Q9UQB9 whole entry): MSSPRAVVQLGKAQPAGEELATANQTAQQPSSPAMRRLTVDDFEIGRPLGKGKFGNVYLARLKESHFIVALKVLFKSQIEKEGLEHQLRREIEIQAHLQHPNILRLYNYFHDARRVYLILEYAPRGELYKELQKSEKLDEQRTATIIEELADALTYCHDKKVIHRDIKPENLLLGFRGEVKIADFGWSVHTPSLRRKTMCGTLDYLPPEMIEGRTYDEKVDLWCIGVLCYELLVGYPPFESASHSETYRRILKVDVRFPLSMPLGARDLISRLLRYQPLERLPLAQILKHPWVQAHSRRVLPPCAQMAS
T21 sequence (Q9P286 whole entry): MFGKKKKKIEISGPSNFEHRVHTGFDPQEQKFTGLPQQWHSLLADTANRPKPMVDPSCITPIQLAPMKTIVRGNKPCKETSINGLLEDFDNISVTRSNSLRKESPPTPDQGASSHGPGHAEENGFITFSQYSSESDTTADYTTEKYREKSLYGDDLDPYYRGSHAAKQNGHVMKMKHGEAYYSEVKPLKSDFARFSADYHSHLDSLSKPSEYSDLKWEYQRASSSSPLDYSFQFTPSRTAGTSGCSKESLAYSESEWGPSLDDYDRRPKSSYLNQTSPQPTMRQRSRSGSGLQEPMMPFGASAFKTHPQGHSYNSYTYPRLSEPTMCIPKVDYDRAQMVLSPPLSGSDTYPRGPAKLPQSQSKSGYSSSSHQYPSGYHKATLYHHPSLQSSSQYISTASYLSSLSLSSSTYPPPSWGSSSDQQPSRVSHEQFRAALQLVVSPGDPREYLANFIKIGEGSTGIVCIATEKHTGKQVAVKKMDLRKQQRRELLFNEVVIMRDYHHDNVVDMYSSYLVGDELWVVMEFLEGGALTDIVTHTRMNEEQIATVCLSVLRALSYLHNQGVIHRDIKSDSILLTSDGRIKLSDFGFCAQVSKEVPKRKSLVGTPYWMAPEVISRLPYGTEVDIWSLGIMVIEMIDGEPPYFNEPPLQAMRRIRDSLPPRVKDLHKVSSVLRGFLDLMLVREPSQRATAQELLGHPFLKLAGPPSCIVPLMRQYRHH

Cc1cnc(N[C@H]2CC[C@H](N)CC2)nc1-c1cnc2ccc(-c3ccccc3)cn12 [CDDD11-8]
remaining activity at 1 µM (ABL1): 76.8%
remaining activity at 1 µM (Aurora C): 82.1%
remaining activity at 1 µM (BLK): 47.2%
remaining activity at 1 µM (CAMK1d): 87.1%
remaining activity at 1 µM (CAMK1g): 97.7%
remaining activity at 1 µM (CAMK2g): 96.8%
remaining activity at 1 µM (CDK17/cyclin Y (PCTK2)): 34.1%
remaining activity at 1 µM (CDK18/cyclin Y (PCTK3)): 100%
remaining activity at 1 µM (CDK19/cyclin C): 38%
remaining activity at 1 µM (CDK2/cyclin O): 56.8%
remaining activity at 1 µM (CDK9/cyclin T1): 18.5%
remaining activity at 1 µM (CK1a1): 102%
remaining activity at 1 µM (CK1d): 17.6%
remaining activity at 1 µM (DCAMKL2): 108%
remaining activity at 1 µM (DDR2): 73.5%
remaining activity at 1 µM (EPHB1): 88.1%
remaining activity at 1 µM (HIPK2): 104%
remaining activity at 1 µM (KHS/MAP4K5): 20.3%
remaining activity at 1 µM (MAPKAPK5/PRAK): 99.4%
remaining activity at 1 µM (PAK1): 106%
remaining activity at 1 µM (PAK5): 86.2%
remaining activity at 1 µM (PHKg1): 59.2%
remaining activity at 1 µM (PKA): 95.3%
remaining activity at 1 µM (PKCnu/PRKD3): 35.1%
remaining activity at 1 µM (SNARK/NUAK2): 45.2%
remaining activity at 1 µM (SRMS): 101%
remaining activity at 1 µM (STK38/NDR1): 93.3%
remaining activity at 1 µM (SYK): 13.4%
remaining activity at 1 µM (TESK1): 113%
remaining activity at 1 µM (ULK2): 113%
